Measurements: US20210137961A1, “Compositions and Methods for Treating Dry Eye Diseases” (priority 2017, published 2021)
Values after ≈ are worked out from the molar mass of the structure shown.

What was measured:
Format in all cases: cell-based
MSRA = test: MIC against MSRA (30 species)
Streptococcus pyogenes = test: MIC against Streptococcus pyogenes
Ureaplasma urealyticum = test: MIC against Ureaplasma urealyticum; details: N 10
[1] = Streptococcus pyogenes (a), N 407

CC[C@H]1OC(=O)[C@@](C)(F)C(=O)[C@H](C)[C@@H](O[C@@H]2O[C@H](C)C[C@H](N(C)C)[C@H]2O)[C@](C)(OC)C[C@@H](C)C(=O)[C@H](C)[C@H]2N(CCCCn3cc(-c4cccc(N)c4)nn3)C(=O)O[C@]12C [Solithromycin, solithromycin]
I = intermediate susceptibility (MSRA): 0% | MIC50 (MSRA): 0.03 µg/mL (≈ 0.0355 µM) | MIC90 (MSRA): 64 µg/mL (≈ 75.7 µM) | NS = not susceptible (MSRA): 30% | S = susceptible (MSRA): 70% | MIC90 (Streptococcus pyogenes; Streptococcus Pyogenes (100 strains)): 0.03 µg/mL (≈ 0.0355 µM) | MIC50 (Streptococcus pyogenes; [1]): ≤0.03 µg/mL | MIC90 (Streptococcus pyogenes; [1]): ≤0.03 µg/mL | MIC Range (Streptococcus pyogenes; [1]): ≤0.03-0.5 ^ μg/mL | MIC50 (Streptococcus pyogenes; Streptococcus pyogenes, N 407): ≤0.03 µg/mL | MIC90 (Streptococcus pyogenes; Streptococcus pyogenes, N 407): ≤0.03 µg/mL | MIC Range (Streptococcus pyogenes; Streptococcus pyogenes, N 407): ≤0.03-0.5 ^ μg/mL | MIC50 (Ureaplasma urealyticum): 0.008 µg/mL (≈ 0.00947 µM) | MIC90 (Ureaplasma urealyticum): 0.031 µg/mL (≈ 0.0367 µM) | MIC Range (Ureaplasma urealyticum): 0.004 to 0.063 µg/mL
